Values of other authors as cited in US20110038852A1, “ANTIVIRALS THAT TARGET TRANSPORTERS, CARRIERS, AND ION CHANNELS” (3-V BIOSCIENCES, INC., priority 2009, published 2011).

Columns and labels:
[1] = tested on: rhinoviral infections; settings: volunteers, clinical trials
[2] = tested on: rhinovirus infections

Compound	mucus secretions and illness-associated symptoms [1]	side effects ([2]; human, in vivo)	effect against rhinovirus infections ([2]; used intranasally)
Cc1cc(CCCOc2c(C)cc(-c3noc(C(F)(F)F)n3)cc2C)on1 [Pleconaril]	significant decrease	–	–
Interferon-alpha	–	nasal bleeding	effective
